The text below walks through data of ChEMBL document CHEMBL1909530, “Computational techniques are valuable tools for the discovery of protein-protein interaction inhibitors: the 14-3-3σ case” (Bioorg Med Chem Lett, 2011).

Changes are numbered by the printed parent chain. The source made the active and inactive calls. The calls are words filed in the database; no cut-off is given here.

In assay [1] the target is T1, 14-3-3 protein sigma (Homo sapiens) (UniProt P31947).
T1 sequence (whole entry): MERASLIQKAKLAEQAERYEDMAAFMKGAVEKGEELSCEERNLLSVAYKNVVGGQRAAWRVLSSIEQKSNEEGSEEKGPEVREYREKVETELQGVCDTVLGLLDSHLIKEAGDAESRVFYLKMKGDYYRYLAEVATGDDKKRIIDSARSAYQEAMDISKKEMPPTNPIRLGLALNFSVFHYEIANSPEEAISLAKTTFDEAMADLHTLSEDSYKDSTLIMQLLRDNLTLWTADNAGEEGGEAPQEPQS
In words: Inhibition of 14-3-3sigma binding domain in human Ba/F3 cells expressing imatibib-sensitive wild type Bcr-Abl construct assessed as inhibition of 14-3-3sigma-c-Abl interaction. It counts as cell-based. As to conditions: BaF3.

Assay [2] deals with T1, 14-3-3 protein sigma (Homo sapiens). In words: Inhibition of 14-3-3sigma in human Ba/F3 cells expressing imatinib-sensitive wild type Bcr-Abl construct assessed as cell survival. It counts as cell-based. As to conditions: BaF3.
Assay [3] addresses T2, 14-3-3 protein sigma (Mus musculus) (UniProt O70456).
T2 sequence (whole entry): T1 sequence (whole entry) with G28S, R82K, Q93R, E110G, N234S, Q244E
In words: Inhibition of 14-3-3sigma in mouse 32D cells expressing imatinib-sensitive wild type Bcr-Abl construct assessed as cell survival. It counts as cell-based.

Assay [4] concerns the target T1, 14-3-3 protein sigma (Homo sapiens). In words: Inhibition of 14-3-3sigma in human Ba/F3 cells expressing imatinib-sensitive wild type Bcr-Abl construct assessed as release of full-length c-Abl from cytoplasmic complex with 14-3-3sigma at 5 uM after 24 hrs by immunoprecipitation/immunoblot technique. To be noted: BaF3. It is filed as cell-based. In general terms: Immunoblotting shows a protein as a band on a membrane.

For assay [5] the target is unchanged. Put plainly: Inhibition of 14-3-3sigma in human Ba/F3 cells expressing imatinib-sensitive wild type Bcr-Abl construct assessed as cleaved c-Abl at mitochondrial membranes at 5 uM after 24 hrs by immunoprecipitation/immunoblot technique. It is filed as cell-based. To be noted: BaF3.
The target is the same in assay [6]. Put plainly: Inhibition of 14-3-3sigma binding domain in human Ba/F3 cells expressing imatibib-resistant Bcr-Abl T315I mutant construct assessed as inhibition of 14-3-3sigma-c-Abl interaction. It is filed as cell-based. As to conditions: BaF3.
Another assay concerns the target T3, 14-3-3 protein sigma (Homo sapiens, UniProt P31947).
T3 sequence (P31947 whole entry): T1 sequence (whole entry)
In words: Binding affinity to histidine-tagged human recombinant 14-3-3sigma by transferred NOESY analysis.

Assay [7] deals with T1, 14-3-3 protein sigma (Homo sapiens). In words: Inhibition of 14-3-3sigma in human Ba/F3 cells expressing imatinib-sensitive wild type Bcr-Abl construct assessed as relocation of full-length c-Abl to mitochondrial membranes at 5 uM after 24 hrs by immunoprecipitation/immunoblot technique. As to conditions: BaF3. It is filed as cell-based.
Assay [8] has the same target. Put plainly: Inhibition of 14-3-3sigma in human Ba/F3 cells expressing imatinib-sensitive wild type Bcr-Abl construct assessed as nuclear import of full-length c-Abl at 5 uM after 24 hrs by immunoprecipitation/immunoblot technique. It is filed as cell-based. To be noted: BaF3.
Assay [9] has the same target. To be noted: BaF3, 1 uM.
Description: Inhibition of 14-3-3sigma in human Ba/F3 cells expressing wild type Bcr-Abl construct assessed as release of full-length c-Abl from cytoplasmic complex with 14-3-3sigma at 1 uM after 24 hrs by immunoprecipitation/immunoblot technique

Regarding `Cc1ccc(-c2cc(-c3ccccc3)nc(N/N=C/c3cc([N+](=O)[O-])ccc3O)n2)cc1`, the LD50 came to 0.65 µM in assay [1], 0.65 µM in assay [2] and 2.84 µM in assay [3].
Turning to `CCCCCCOC(=O)c1ccc(Nc2c([N+](=O)[O-])cc(C(=O)O)cc2[N+](=O)[O-])cc1`, the inhibition result in [4], in assay [5], in [7] and in assay [8] was “Active” each time. The LD50 in [1] is 1.41 µM; in [6] it was 1.7 µM. Moreover, the Kd at 14-3-3 protein sigma was greater than 1000 nM.
Consider `Cc1c(NC(=O)c2cc(C(=O)O)ccc2C(=O)O)c(=O)n(-c2ccccc2)n1C`, for which the LD50 was 1.04 µM in assay [1] and 1.47 µM in assay [6].
For `Cc1ccc(NC(=O)c2ccc(CN3CCN(C)CC3)cc2)cc1Nc1nccc(-c2cccnc2)n1`, in assay [9], the inhibition result is “Active”.

For orientation: Kd means the free concentration of one partner at which half of the binding sites on the other are occupied at equilibrium, for simple one-to-one binding.
